Experimental data from BindingDB's records for doi:10.1016/j.ejmech.2018.10.063 (Saint Petersburg State University, 2019).

Experiment: Inhibition of Influenza A virus (A/Puerto Rico/8/34(H1N1)) PA endonuclease infected in MDCK cells assessed as reduction in virus titer treated with cells for 1 hr prior to viral infection for 1 hr followed by compound washout and subsequent compound addition measured after 48 hrs by hemagglutination test

Row | SMILES | IC50
1 | c1cncc(N2CCN=C2c2ccc(C3=NCCN3c3cccnc3)cc2)c1 | 68 µM
2 | COc1ccc(N2CCN=C2c2ccc(C3=NCCN3)cc2)cc1 | 44 µM
3 | Fc1ccc(N2CCN=C2c2ccc(C3=NCCN3)cc2)cc1 | 65 µM
4 | c1ccc(N2CCN=C2c2ccc(C3=NCCN3)cc2)cc1 | 30 µM
5 | c1ccc(N2CCN=C2c2ccc(C3=NCCN3c3ccccn3)cc2)nc1 | 35 µM
6 | Clc1ccc(N2CCN=C2c2ccc(C3=NCCN3c3ccc(Cl)cc3)cc2)cc1 | 5 µM
7 | COc1ccc(N2CCN=C2c2ccc(C3=NCCN3c3ccc(OC)cc3)cc2)cc1 | 16 µM
8 | c1ccc(N2CCN=C2c2ccc(C3=NCCN3c3ccccc3)cc2)cc1 | 77 µM
9 | c1cnc(N2CCN=C2c2ccc(C3=NCCN3c3cnccn3)cc2)cn1 | > 809 µM
10 | Fc1ccc(N2CCN=C2c2ccc(C3=NCCN3c3ccc(F)cc3)cc2)cc1 | 12 µM
11 | FC(F)(F)c1ccc(N2CCN=C2c2ccc(C3=NCCN3c3ccc(C(F)(F)F)cn3)cc2)nc1 | 103 µM
12 | C[C@@H](N)C12CC3CC(CC(C3)C1)C2 [(alpha-methyl-1-adamantyl)methylamine] | 11 µM
